Results from patent US20250108119A1, “NOVEL STEROID PAYLOADS, STEROID LINKERS, ADCs CONTAINING AND USE THEREOF” (IMMUNEXT, INC., priority 2021, published 2025).

Test system: LPS stimulated human PBMCs
Experiment: LPS stimulated human PBMC, IL-1β and IL-6 ELISA
Assay type: cell-based
Settings: for inhibition of IL-1β production / inhibition of IL-1β and IL-6 production: 24 hr; for inhibition of IL-1β and IL-6 production: Experiment 1: free payload 1000-1 nM, 1 ng/ml LPS
Experimental: The potency of novel steroids was assessed in a model of LPS stimulated human peripheral blood mononuclear cells (PBMCS). Stimulated PBMCs in this assay produce multiple pro-inflammatory cytokines1.
In all the following experiments, human PBMC, isolated from 1-2 healthy donors per study, were stimulated with LPS to induce cytokine production.
LPS was added either immediately after addition of free payload, or in the case of conjugates, four hours after addition of the conjugate.
Cells were plated in flat bottom 96 well plates at a final concentration of 150,000 cells/well, with technical duplicates for each condition.
Test agents were serially diluted in the assay media and added to a final concentration of 1,000 nM-1 nM or 0.2 nM depending on the assay or as a no treatment control.
LPS stimulation was added to a final concentration of 1 ng/ml.
Human IL-1β and IL-6 ELISA kits were used on supernatants according to vendor protocols. All graphs were prepared with GraphPad (Prism).

[1] = Experiment 6: free payload 1000-0.16 nM

C[C@]12C=CC(=O)C=C1CC[C@@H]1[C@@H]2[C@@H](O)C[C@@]2(C)[C@H]1C[C@H]1O[C@@H](c3ccc(CC4CC5(C4)CC(NC(=O)[C@H](CCC(=O)O)NC(=O)CNC(=O)CBr)C5)cc3)O[C@]12C(=O)COP(=O)(O)O (stereo partly drawn) [INX A7, (S)-4-(2-(2-bromoacetamido)acetamido)-5-((6-(4-((6aR,6bS,7S,8aS,8bS,10R,11aR,12aS,12bS)-7-hydroxy-6a,8a-dimethyl-4-oxo-8b-(2-(phosphonooxy)acetyl)-2,4,6a,6b,7,8,8a,8b,11a,12,12a,12b-dodecahydro-1H-naphtho[2′,1′:4,5]indeno[1,2-d][1,3]dioxol-10-yl)benzyl)spiro[3.3]heptan-2-yl)amino)-5-oxopentanoic acid]
potency of conjugated linker payloads over INX J (conclusions): enhanced potency

C[C@]12C=CC(=O)C=C1CC[C@@H]1[C@@H]2[C@@H](O)C[C@@]2(C)[C@H]1C[C@H]1O[C@@H](c3ccc(CC4CC45CCC(NC(=O)[C@H](CCC(=O)O)NC(=O)CNC(=O)CBr)CC5)cc3)O[C@]12C(=O)CO (stereo partly drawn) [INX A9, (4S)-4-(2-(2-bromoacetamido)acetamido)-5-((1-(4-((6aR,6bS,7S,8aS,8bS,10R,11aR,12aS,12bS)-7-hydroxy-8b-(2-hydroxyacetyl)-6a,8a-dimethyl-4-oxo-2,4,6a,6b,7,8,8a,8b,11a,12,12a,12b-dodecahydro-1H-naphtho[2′,1′:4,5]indeno[1,2-d][1,3]dioxol-10-yl)benzyl)spiro[2.5]octan-6-yl)amino)-5-oxopentanoic acid]
potency of conjugated linker payloads over INX J (conclusions): enhanced potency

C[C@]12C=CC(=O)C=C1[C@@H](F)C[C@H]1[C@@H]3C[C@H]4O[C@@H](c5ccc(CC6CC7(C6)CC(NC(=O)[C@H](CCC(=O)O)NC(=O)CNC(=O)CBr)C7)cc5)O[C@@]4(C(=O)COP(=O)(O)O)[C@@]3(C)C[C@H](O)[C@@]12F (stereo partly drawn) [INX A12, (S)-4-(2-(2-bromoacetamido)acetamido)-5-((6-(4-((2S,6aS,6bR,7S,8aS,8bS,10R,11aR,12aS,12bS)-2,6b-difluoro-7-hydroxy-6a,8a-dimethyl-4-oxo-8b-(2-(phosphonooxy)acetyl)-2,4,6a,6b,7,8,8a,8b,11a,12,12a,12b-dodecahydro-1H-naphtho[2′,1′:4,5]indeno[1,2-d][1,3]dioxol-10-yl)benzyl)spiro[3.3]heptan-2-yl)amino)-5-oxopentanoic acid]
potency of conjugated linker payloads over INX J (conclusions): enhanced potency

C[C@]12C=CC(=O)C=C1CC[C@H]1[C@@H]3C[C@H]4O[C@@H](c5ccc(CC67CC(N)(C6)C7)cc5)O[C@@]4(C(=O)CO)[C@@]3(C)C[C@H](O)[C@@]12F [INX-SM-13, (6aS,6bR,7S,8aS,8bS,10R,11aR,12aS,12bS)-10-(4-((3-aminobicyclo[1.1.1]pentan-1-yl)methyl)phenyl)-6b-fluoro-7-hydroxy-8b-(2-hydroxyacetyl)-6a,8a-dimethyl-1,2,6a,6b,7,8,8a,8b,11a,12,12a,12b-dodecahydro-4H-naphtho[2′,1′:4,5]indeno[1,2-d][1,3]dioxol-4-one]
inhibition of IL-1β production [1]: did not lead to increased potency over the non-fluorinated payload

C[C@]12C=CC(=O)C=C1[C@@H](F)C[C@H]1[C@@H]3C[C@H]4O[C@@H](c5ccc(CC67CC(N)(C6)C7)cc5)O[C@@]4(C(=O)CO)[C@@]3(C)C[C@H](O)[C@@]12F [INX-SM-24, (2S,6aS,6bR,7S,8aS,8bS,10R,11aR,12aS,12bS)-10-(4-((3-aminobicyclo[1.1.1]pentan-1-yl)methyl)phenyl)-2,6b-difluoro-7-hydroxy-8b-(2-hydroxyacetyl)-6a,8a-dimethyl-1,2,6a,6b,7,8,8a,8b,11a,12,12a,12b-dodecahydro-4H-naphtho[2′,1′:4,5]indeno[1,2-d][1,3]dioxol-4-one]
inhibition of IL-1β production [1]: increased potency over the non-fluorinated INX-SM-3

C[C@]12C=CC(=O)C=C1CC[C@@H]1[C@@H]2[C@@H](O)C[C@@]2(C)[C@H]1C[C@H]1O[C@H](c3ccc(CC45CC(N)(C4)C5)cc3)O[C@]12C(=O)CO [INX-SM-53, (6aR,6bS,7S,8aS,8bS,10S,11aR,12aS,12bS)-10-(4-((3-aminobicyclo[1.1.1]pentan-1-yl)methyl)phenyl)-7-hydroxy-8b-(2-hydroxyacetyl)-6a,8a-dimethyl-1,2,6a,6b,7,8,8a,8b, 11a,12,12a,12b-dodecahydro-4H-naphtho[2′,1′:4,5]indeno[1,2-d][1,3]dioxol-4-one]
inhibition of IL-1β and IL-6 production (n=1 donor): did not show inhibition

C[C@]12C=CC(=O)C=C1CC[C@@H]1[C@@H]2[C@@H](O)C[C@@]2(C)[C@H]1C[C@H]1O[C@H](C34CC(Cc5cccc(N)c5)(C3)C4)O[C@]12C(=O)CO [INX-SM-54, (6aR,6bS,7S,8aS,8bS,10S,11aR,12aS,12bS)-10-(3-(3-aminobenzyl)bicyclo[1.1.1]pentan-1-yl)-7-hydroxy-8b-(2-hydroxyacetyl)-6a,8a-dimethyl-1,2,6a,6b,7,8,8a,8b,11a,12,12a,12b-dodecahydro-4H-naphtho[2′,1′:4,5]indeno[1,2-d][1,3]dioxol-4-one]
inhibition of IL-1β and IL-6 production (n=1 donor): did not show inhibition

C[C@]12C=CC(=O)C=C1CC[C@@H]1[C@@H]2[C@@H](O)C[C@@]2(C)[C@H]1C[C@H]1O[C@H](c3cnc(Cc4cccc(N)c4)s3)O[C@]12C(=O)CO [INX-SM-56, (6aR,6bS,7S,8aS,8bS,10S,11aR,12aS,12bS)-10-(2-(3-aminobenzyl)thiazol-5-yl)-7-hydroxy-8b-(2-hydroxyacetyl)-6a,8a-dimethyl-1,2,6a,6b,7,8,8a,8b, 11a,12,12a,12b-dodecahydro-4H-naphtho[2′,1′:4,5]indeno[1,2-d][1,3]dioxol-4-one]
inhibition of IL-1β production (Experiment 2: free payload 1000-1 nM, n=1 donor): did not show inhibition

C[C@]12C=CC(=O)C=C1[C@@H](F)C[C@H]1[C@@H]3C[C@H]4O[C@H](c5ccc(CC67CC(N)(C6)C7)cc5)O[C@@]4(C(=O)CO)[C@@]3(C)C[C@H](O)[C@@]12F [INX-SM-74, (2S,6aS,6bR,7S,8aS,8bS,10S,11aR,12aS,12bS)-10-(4-((3-aminobicyclo[1.1.1]pentan-1-yl)methyl)phenyl)-2,6b-difluoro-7-hydroxy-8b-(2-hydroxyacetyl)-6a,8a-dimethyl-1,2,6a,6b,7,8,8a,8b,11a,12,12a,12b-dodecahydro-4H-naphtho[2′,1′:4,5]indeno[1,2-d][1,3]dioxol-4-one]
potency of free payloads (conclusions): moderate potency albeit much weaker than the R stereoisomer with the same halogenation
